Where “and” joins values, the source holds several entries; their conditions need not be identical. Identical values can stand only once. ± gives the uncertainty stated by the source.

These results are taken from the CheMixHub viscosity set.

In general, viscosity refers to the resistance of a fluid to flow. Low values mean easy flow, high ones sluggish flow. Consider `CC(=O)N(C(C)C)C(C)C`, for which the viscosity (298.16 K, 101 kPa) is 2.18 ± 0.019 mPa·s.

As for `CCCCCCC(=O)O`, the viscosity (298.15 K, 101 kPa) is 3.784 ± 0.098 mPa·s.

As for `CCCCCCCCCCCCBr`, the viscosity (298.08 K, 101 kPa) came out at 3.373 ± 0.086 mPa·s; the viscosity (303.1 K, 101 kPa) is on record as 3.024 ± 0.077 mPa·s; the viscosity (308.11 K, 101 kPa) came out at 2.689 ± 0.069 mPa·s; the viscosity (313.11 K, 101 kPa) was determined as 2.437 ± 0.062 mPa·s.

`CCCCCCCCn1cc[n+](C)c1.[Cl-]`: the viscosity by setting is: (313.15 K, 101 kPa) 4062 ± 1600 mPa·s; (323.15 K, 101 kPa) 2043 ± 660 mPa·s.

Compound `CCCCCC[N+](CC)(CC)CC.O=S(=O)([N-]S(=O)(=O)C(F)(F)F)C(F)(F)F` displayed a viscosity (293.15 K, 100 kPa) of 241.4 ± 25 mPa·s and a viscosity (313.15 K, 100 kPa) of 80.71 ± 8.1 mPa·s.

With `CCCCCC[n+]1ccn(C)c1.O=S(=O)([O-])C(F)(F)F`, the viscosity reads like this: (293.15 K, 100 kPa) 194.9 ± 20 mPa·s; (298.15 K, 100 kPa) 150.8 ± 15 mPa·s; (303.15 K, 100 kPa) 115.7 ± 12 mPa·s; (308.15 K, 100 kPa) 91.13 ± 9.2 mPa·s; (313.15 K, 100 kPa) 74.03 ± 7.4 mPa·s.

For the compound `CCOC(C)=O`, the viscosity is, setting by setting: (296 K, 101.3 kPa) 0.437 ± 0.008 mPa·s; (298 K, 101.3 kPa) 0.439 ± 0.006 mPa·s and 0.439 ± 0.044 mPa·s; (298.15 K, 100 kPa) 0.42 ± 0.2 mPa·s and 0.42 ± 0.08 mPa·s; (298.15 K, 101.3 kPa) 0.4407 ± 0.0042 mPa·s (2×) and 0.439 ± 0.013 mPa·s; (298.15 K, 101.33 kPa) 0.457 ± 0.013 mPa·s and 0.424 ± 0.025 mPa·s and 0.424 ± 0.048 mPa·s; (303.15 K, 101.3 kPa) 0.4178 ± 0.0041 mPa·s and 0.4178 ± 0.004 mPa·s. Moreover, the viscosity by setting is: (308.15 K, 101.3 kPa) 0.3972 ± 0.0039 mPa·s and 0.3972 ± 0.0038 mPa·s; (313.15 K, 101.3 kPa) 0.376 ± 0.0038 mPa·s and 0.376 ± 0.0037 mPa·s; (313.15 K, 101.32 kPa) 0.369 ± 0.01 mPa·s; (313.15 K, 101.33 kPa) 0.368 ± 0.006 mPa·s; (318 K, 101.3 kPa) 0.3829 ± 0.016 mPa·s; (318 K, 101.33 kPa) 0.3829 ± 0.039 mPa·s. Moreover, the viscosity reads like this: (318.15 K, 101.3 kPa) 0.358 ± 0.0036 mPa·s; (318.15 K, 101.33 kPa) 0.35 ± 0.006 mPa·s; (323.15 K, 100 kPa) 0.3053 ± 0.0025 mPa·s; (323.15 K, 101 kPa) 0.341 ± 0.008 mPa·s and 0.327 ± 0.02 mPa·s and 0.3356 ± 0.0091 mPa·s; (323.15 K, 101.3 kPa) 0.3407 ± 0.0035 mPa·s and 0.3407 ± 0.0034 mPa·s.

Consider `CCOc1ccccc1`, for which the viscosity by setting is: (293.15 K, 101 kPa) 1.222 ± 0.051 mPa·s and 1.27 ± 0.05 mPa·s; (293.15 K, 101.3 kPa) 1.366 ± 0.042 mPa·s; (293.15 K, 101.33 kPa) 1.231 ± 0.014 mPa·s; (293.35 K, 101 kPa) 1.24 ± 0.013 mPa·s; (298 K, 101.33 kPa) 1.164 ± 0.025 mPa·s; (302.75 K, 101 kPa) 1.03 ± 0.01 mPa·s. The viscosity is 1.068 ± 0.023 mPa·s (303 K, 101.33 kPa); 1.038 ± 0.051 mPa·s and 1.05 ± 0.04 mPa·s (303.15 K, 101 kPa); 1.036 ± 0.012 mPa·s (303.15 K, 101.33 kPa); 0.983 ± 0.022 mPa·s (308 K, 101.33 kPa); 0.978 ± 0.051 mPa·s (308.15 K, 101 kPa); 0.9842 ± 0.034 mPa·s (308.15 K, 101.3 kPa). The viscosity was 0.901 ± 0.05 mPa·s and 0.875 ± 0.009 mPa·s (313.15 K, 101 kPa); 0.894 ± 0.01 mPa·s (313.15 K, 101.33 kPa); 0.839 ± 0.05 mPa·s (318.15 K, 101 kPa); 0.8284 ± 0.031 mPa·s (318.15 K, 101.3 kPa); 0.782 ± 0.05 mPa·s (323.15 K, 101 kPa).

With `CC[NH+](CC)CC.O=S(=O)([O-])O`, the viscosity (303.15 K, 101 kPa) was 153 ± 3 mPa·s and 153 ± 3.2 mPa·s; the viscosity (308.15 K, 101 kPa) is 138 ± 3 mPa·s and 138 ± 2.9 mPa·s; the viscosity (313.15 K, 101 kPa) came to 108 ± 2 mPa·s.

For `COC(=O)CC(C)=O`, the viscosity by setting is: (298.15 K, 101.3 kPa) 1.566 ± 0.038 mPa·s and 1.564 ± 0.038 mPa·s and 1.564 ± 0.021 mPa·s; (303.15 K, 101.3 kPa) 1.422 ± 0.035 mPa·s and 1.421 ± 0.035 mPa·s and 1.421 ± 0.019 mPa·s; (308.15 K, 101.3 kPa) 1.298 ± 0.032 mPa·s and 1.298 ± 0.018 mPa·s.

As for `COCCOCC[n+]1ccn(CCC#N)c1.O=S(=O)([N-]S(=O)(=O)C(F)(F)F)C(F)(F)F`, the viscosity reads like this: (293.15 K, 101.33 kPa) 296.5 ± 12 mPa·s; (303.15 K, 101.33 kPa) 169 ± 6 mPa·s; (313.15 K, 101.33 kPa) 103.2 ± 3.4 mPa·s; (323.15 K, 101.33 kPa) 74.62 ± 2.4 mPa·s.

In the case of `COc1ccc(C=O)cc1`, the viscosity was 3.251 ± 0.75 mPa·s and 3.578 ± 0.36 mPa·s and 3.251 ± 0.024 mPa·s (303.15 K, 101 kPa); 3.131 ± 0.72 mPa·s and 3.035 ± 0.3 mPa·s and 3.131 ± 0.023 mPa·s (308.15 K, 101 kPa); 2.961 ± 0.68 mPa·s and 2.649 ± 0.27 mPa·s and 2.961 ± 0.022 mPa·s (313.15 K, 101 kPa); 2.682 ± 0.62 mPa·s and 2.34 ± 0.23 mPa·s and 2.682 ± 0.02 mPa·s (318.15 K, 101 kPa).

Take `CS(=O)(=O)[O-].C[N+](C)(CCO)CCO`: the viscosity stood at 1495 ± 180 mPa·s (298.15 K, 101.33 kPa); 1021 ± 110 mPa·s (303.15 K, 101.33 kPa); 716.3 ± 73 mPa·s (308.15 K, 101.33 kPa); 513.1 ± 48 mPa·s (313.15 K, 101.33 kPa); 377.6 ± 33 mPa·s (318.15 K, 101.33 kPa); 282.4 ± 23 mPa·s (323.15 K, 101.33 kPa).

With `Clc1cccc(Cl)c1`, the viscosity (298.15 K, 100 kPa) came out at 1.017 ± 0.022 mPa·s; the viscosity (303.15 K, 100 kPa) was found to be 0.945 ± 0.009 mPa·s; the viscosity (303.15 K, 101 kPa) was 0.949 ± 0.012 mPa·s and 0.945 ± 0.02 mPa·s; the viscosity (308.15 K, 100 kPa) was 0.895 ± 0.008 mPa·s and 0.906 ± 0.019 mPa·s; the viscosity (308.15 K, 101 kPa) was 0.895 ± 0.012 mPa·s and 0.895 ± 0.019 mPa·s; the viscosity (313.15 K, 100 kPa) stood at 0.849 ± 0.008 mPa·s. The viscosity is, setting by setting: (313.15 K, 101 kPa) 0.849 ± 0.018 mPa·s; (318.15 K, 100 kPa) 0.799 ± 0.008 mPa·s and 0.809 ± 0.017 mPa·s; (318.15 K, 101 kPa) 0.799 ± 0.017 mPa·s.

`[O-][Cl+3]([O-])([O-])O[Cl+3]([O-])([O-])[O-]` showed a viscosity (293.15 K, 101.33 kPa) of 0.698 ± 0.023 mPa·s.
